# According to the supplement of paper PMC7023306:
# ± gives the uncertainty stated by the source.
# Experiment: TIMS collision cross section in N2 (TIMS CCS N2); higher = larger gas-phase ion size
# Details: drift gas: N2 (99.4% N2, 0.6% O2), calibration: Stow et al. 2017 values for Agilent ESI-L Low Concentration Tune Mix, ionization: negative ESI
# Experimental: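 Authentic plant natural product standards (10-50 ppm in 80% methanol) were analysed by UHPLC (BEH C18, 60 °C) coupled to a Bruker timsTOF Pro in negative ESI with N2 drift gas. TIMS collision cross sections were computed from mobility peak apices after calibration with Agilent Tune Mix using Stow et al. reference values. Values are the average of triplicate runs on different days, reported per annotated ion species (deprotonated ion, adducts, dimer, oxidized ion).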
Compound,TIMS collision cross section in N2 (ion species: [M-H]-) [Å²],further results
COc1ccc2c(=O)cc(-c3ccc(O)cc3)oc2c1 [7-Methoxy-4'-hydroxyflavone],164.31 ± 0.31,TIMS collision cross section in N2 (ion species: [2M-H]-): 257.82 ± 0.34 Å²
COc1ccc2c(c1)OC(c1ccccc1)CC2=O (stereo not given) [7-Methoxyflavanone],163.71 ± 0.025,–
COc1ccc(-c2cc3ccc(O)cc3oc2=O)cc1 [7-hydroxy 3(4- methoxyphenyl) coumarin],162.79 ± 0.25,–
COc1ccc(O)c2c1C(=O)CC(c1ccccc1)O2 (stereo not given) [8-Hydroxy-5-methoxyflavanone],165.83 ± 0.053,–
CC(C)=CCc1c(O)cc(O)c2c1O[C@H](c1ccc(O)cc1)CC2=O [8-prenylnaringenin],183.54 ± 0.32,–
O=c1cc(-c2ccc(O)cc2)oc2cc(OC3O[C@H](CO)[C@@H](O)[C@H](O)[C@H]3O)cc(O)c12 (stereo not given in full) [Apigenin-7-O-glucoside (apigetrin)],206.74 ± 0.14,TIMS collision cross section in N2 (ion species: [M-H+Na+HCO2H]-): 228.65 ± 0.32 Å²
O=c1cc(-c2ccc(O)cc2)oc2cc(O)cc(O)c12 [Apigenin],157.47 ± 0.15,TIMS collision cross section in N2 (ion species: [2M-H]-): 238.72 ± 0.12 Å²
COc1cc2oc(-c3ccc(O)cc3O)c(CC=C(C)C)c(=O)c2c(O)c1/C=C/C(C)C [Artocarpin],218.58 ± 0.23,TIMS collision cross section in N2 (ion species: [M-H+Na+HCO2H]-): 229.53 ± 0.64 Å²
C[C@H]1[C@H](C)CC[C@]2(C(=O)O)CC[C@]3(C)C(=CC[C@@H]4[C@@]5(C)C[C@@H](O)[C@H](O)[C@@](C)(CO)[C@@H]5CC[C@]43C)[C@H]12 [Asiatic acid],222.65 ± 0.35,–
O=C(CCc1ccc(O)c(O)c1)c1c(O)cc(O)c([C@@H]2O[C@H](CO)[C@@H](O)[C@H](O)[C@H]2O)c1O [Aspalathin],194.21 ± 0.22,TIMS collision cross section in N2 (ion species: [2M-H]-): 274.03 ± 0.72 Å²; TIMS collision cross section in N2 (ion species: [M-3H]-): 195.17 ± 0.1 Å²
O=c1cc(-c2ccccc2)oc2cc(O)c(O)c(O)c12 [Baicalein],–,TIMS collision cross section in N2 (ion species: [M-3H]-): 158.42 ± 0.15 Å²
"COc1ccc(-c2coc3cc(O)cc(O)c3c2=O)cc1 [Biochanin A (5,7-Dihydroxy-4'-methoxyisoflavone)]",166.11 ± 0.071,TIMS collision cross section in N2 (ion species: [2M-H]-): 261.04 ± 0.32 Å²
"CC1(C)CC[C@]2(C)CC[C@]3(C)C(=CC[C@@H]4[C@@]5(C)CC[C@@H](O)[C@](C)(C(=O)O)[C@@H]5CC[C@]43C)[C@@H]2C1 [Boswellic acid, alpha-]",222.31 ± 0.39,TIMS collision cross section in N2 (ion species: [M-H+Na+HCO2H]-): 239.79 ± 0.21 Å²
Oc1cc(O)c2c(c1)O[C@@H](c1ccc(O)c(O)c1)[C@H](O)C2 [Catechin],156.67 ± 0.19,–
CC1(C)CC[C@]2(C(=O)O)CC[C@]3(C)C(=CC[C@@H]4[C@@]5(C)CC[C@H](O[C@@H]6OC[C@H](O)[C@H](O)[C@H]6O[C@@H]6O[C@H](CO)[C@@H](O)[C@H](O)[C@H]6O)[C@@](C)(CO)[C@@H]5CC[C@]43C)[C@@H]2C1 [Cauloside C],–,TIMS collision cross section in N2 (ion species: [M-H+HCO2H]-): 289.87 ± 0.76 Å²
O=C(/C=C/c1ccc(O)c(O)c1)O[C@@H]1C[C@](O)(C(=O)O)C[C@@H](O)[C@H]1O [Chlorogenic acid],–,TIMS collision cross section in N2 (ion species: [M-3H]-): 187.02 ± 0.44 Å²
O=c1cc(-c2ccccc2)oc2cc(O)cc(O)c12 [Chrysin],156.14 ± 0.1,TIMS collision cross section in N2 (ion species: [2M-H]-): 230.51 ± 0.25 Å²

Compound,TIMS collision cross section in N2 (ion species: [M-H]-) [Å²],further results
CC(C)=CCC1=C(O)C(O)(CC=C(C)C)C(=O)C(C(=O)C(C)C)=C1O (stereo not given) [Cohumulone],184.13 ± 0.17,–
C[C@H]1[C@H](C)CC[C@]2(C(=O)O)CC[C@]3(C)C(=CC[C@@H]4[C@@]5(C)C[C@@H](O)[C@H](O)C(C)(C)[C@@H]5CC[C@]43C)[C@H]12 [Corosolic acid],220.34 ± 0.4,TIMS collision cross section in N2 (ion species: [M-H+Na+HCO2H]-): 231.55 ± 0.4 Å²
COc1cc(O)c2c(=O)cc(-c3cc(OC)c(OC)c(OC)c3)oc2c1 [Corymbosin],190.83 ± 0.34,–
O=c1oc2cc(O)ccc2c2oc3cc(O)ccc3c12 [Coumestrol],155.75 ± 0.042,TIMS collision cross section in N2 (ion species: [2M-H]-): 245.05 ± 0.43 Å²
O=c1c(-c2ccc(O)cc2)coc2cc(O)ccc12 [Daidzein],157.59 ± 0.0071,TIMS collision cross section in N2 (ion species: [2M-H]-): 246.33 ± 0.2 Å²
Oc1ccc2c(c1)O[C@H]1c3ccc(O)cc3OC[C@@H]21 [Demethyl medicarpin],161.89 ± 0.17,–
CC(C)=CCc1c(O)cc(O)c(C(=O)/C=C/c2ccc(O)cc2)c1O [Desmethylxanthohumol],183.45 ± 0.15,–
O=C1c2c(O)cc(O)cc2O[C@H](c2ccc(O)cc2)[C@H]1O [Dihydrokaempferol],164.03 ± 0.16,TIMS collision cross section in N2 (ion species: [2M-H]-): 248.74 ± 0.038 Å²; TIMS collision cross section in N2 (ion species: [M-H+Na+HCO2H]-): 186.44 ± 0.2 Å²
COc1ccc(-c2cc(=O)c3c(O)cc(O)cc3o2)cc1O [Diosmetin],171.28 ± 0.2,–
COc1ccc(-c2cc(=O)c3c(O)cc(O[C@@H]4O[C@H](CO[C@@H]5O[C@@H](C)[C@H](O)[C@@H](O)[C@H]5O)[C@@H](O)[C@H](O)[C@H]4O)cc3o2)cc1O [Diosmin],233.82 ± 0.23,TIMS collision cross section in N2 (ion species: [M-H+Na+HCO2H]-): 247.05 ± 0.28 Å²
O=C1C[C@@H](c2ccc(O)c(O)c2)Oc2cc(O)cc(O)c21 [Eriodictyol],165.97 ± 0.11,–
COc1ccc(-c2cc(=O)c3c(O)c(OC)c(O)cc3o2)cc1OC [Eupatilin],185.44 ± 0.18,TIMS collision cross section in N2 (ion species: [M-H+Na+HCO2H]-): 201.78 ± 0.15 Å²
Cc1c(O)c(C)c2c(c1O)C(=O)C[C@@H](c1ccc(O)cc1)O2 [Farrerol],172.28 ± 0.21,TIMS collision cross section in N2 (ion species: [M-H+Na+HCO2H]-): 186.6 ± 0.36 Å²
O=c1c(O)c(-c2ccc(O)c(O)c2)oc2cc(O)ccc12 [Fisetin],162.38 ± 0.017,TIMS collision cross section in N2 (ion species: [M-3H]-): 157.48 ± 0.065 Å²
COc1ccc(-c2coc3cc(O)ccc3c2=O)cc1 [Formononetin],163.76 ± 0.32,TIMS collision cross section in N2 (ion species: [2M-H]-): 257.46 ± 0.31 Å²
O=c1c(-c2ccc(O)cc2)coc2cc(O)cc(O)c12 [Genistein],159.89 ± 0.26,TIMS collision cross section in N2 (ion species: [2M-H]-): 249.93 ± 0.16 Å²
O=c1c(-c2ccc(O)cc2)coc2cc(O[C@@H]3O[C@H](CO)[C@@H](O)[C@H](O)[C@H]3O)cc(O)c12 [Genistin],212.14 ± 0.076,TIMS collision cross section in N2 (ion species: [M-H+HCO2H]-): 220.37 ± 0.15 Å²
